The source of these data is ChEMBL document CHEMBL4840346, “Amakusamine from a Psammocinia sp. Sponge: Isolation, Synthesis, and SAR Study on the Inhibition of RANKL-Induced Formation of Multinuclear Osteoclasts” (J Nat Prod, 2021).

Calls of active or inactive are those of the source. No cut-off for these calls is given here.

Data set [1] deals with RAW264.7. Nature of the data set: Inhibition of RANKL-induced osteoclastogenesis in mouse RAW264.7 cells assessed as reduction in number of TRAP-positive multinuclear cells at 50 uM measured after 4 days by TRAP staining based assay. It counts as functional. As to conditions: for inhibition: time 4.0 day.
The test system of data set [2] is RAW264.7. The experiment in a line: Cytotoxicity against mouse RAW264.7 cells at 50 uM by MTT assay. It counts as cell-based. As to conditions: raw264.7, 50 µM. Background: Formazan colour is commonly taken as a measure of viable cells.
The subject of data set [3] is RAW264.7. The experiment in a line: Inhibition of RANKL-induced osteoclastogenesis in mouse RAW264.7 cells assessed as reduction in number of TRAP-positive multinuclear cells measured after 4 days by TRAP staining based assay. It counts as functional, cell-based.
The subject of data set [4] is RAW264.7. Nature of the data set: Inhibition of RANKL-induced osteoclastogenesis in mouse RAW264.7 cells assessed as reduction in NFATc1 mRNA expression measured after 24 hrs by RT-PCR analysis. It counts as functional, cell-based. The note with it: dose 30-50 µM.
The subject of data set [5] is RAW264.7. Nature of the data set: Cytotoxicity against mouse RAW264.7 cells at 25 uM by MTT assay. It counts as cell-based. The note with it: raw264.7, 25 µM.

As for `Brc1[nH]c2cc3c(cc2c1Br)OCO3`, the inhibition at 50 µM in the data set on RAW264.7 [1] (RAW264.7, 96 h, time 4 day) is 40%. In addition, the Activity result in the data set on RAW264.7 [2] is “Non-Toxic”.
As to `c1cc2cc3c(cc2[nH]1)OCO3`, in the data set on RAW264.7 [1], the inhibition entry is “inactive”. For the same compound, the Activity entry in the data set on RAW264.7 [2] is “Non-Toxic”.
As to `Cc1c[nH]c2c(Br)c3c(c(Br)c12)OCO3`, the IC50 in the data set on RAW264.7 [3] (Mus musculus, RAW264.7, 96 h) turned out to be 8.1 µM. Further, in the data set with RAW264.7 [2], the Activity entry is recorded as “Non-Toxic”.
With `OCc1c[nH]c2c(Br)c3c(c(Br)c12)OCO3`, in the data set on RAW264.7 [3] (Mus musculus, RAW264.7, 96 h), the IC50 came out at 10 µM. Moreover, the Activity result with RAW264.7 [2] is “Non-Toxic”.
Consider `Clc1c2c(c(Cl)c3[nH]ccc13)OCO2`, for which, in the data set on RAW264.7 [3] (Mus musculus, RAW264.7, 96 h), the 50% inhibitory concentration (IC50) turned out to be 40 µM. In addition, in the data set on RAW264.7 [2], the Activity entry is recorded as “Non-Toxic”.
For `CCCCCCCC(=O)n1ccc2c(Br)c3c(c(Br)c21)OCO3`, the 50% inhibitory concentration (IC50) in the data set with RAW264.7 [3] (Mus musculus, RAW264.7, 96 h) came out at 11.1 µM. Besides, in the data set on RAW264.7 [2], the Activity entry is reported as “Non-Toxic”.
Take `CC(=O)n1ccc2c(Br)c3c(c(Br)c21)OCO3`: the half-maximal inhibitory concentration (IC50) with RAW264.7 [3] (Mus musculus, RAW264.7, 96 h) came to 11.7 µM. Further, in the data set on RAW264.7 [2], the Activity result is “Non-Toxic”.
With `O=Cc1c[nH]c2c(Br)c3c(c(Br)c12)OCO3`, the half-maximal inhibitory concentration (IC50) in the data set with RAW264.7 [3] (Mus musculus, RAW264.7, 96 h) was found to be 13.9 µM. Moreover, in the data set with RAW264.7 [2], the Activity result is “Non-Toxic”.
Consider `COc1c(OC)c(Br)c2[nH]ccc2c1Br`, for which the 50% inhibitory concentration (IC50) in the data set with RAW264.7 [3] (Mus musculus, RAW264.7, 96 h) came out at 6.3 µM. Besides, in the data set with RAW264.7 [2], the Activity entry is reported as “Non-Toxic”.
In the case of `O=C(c1ccccc1)n1ccc2c(Br)c3c(c(Br)c21)OCO3`, the inhibition entry in the data set with RAW264.7 [1] is “inactive”. Moreover, the Activity entry in the data set on RAW264.7 [2] is given as “Non-Toxic”.
For the compound `CCCC(=O)n1ccc2c(Br)c3c(c(Br)c21)OCO3`, the IC50 in the data set on RAW264.7 [3] (Mus musculus, RAW264.7, 96 h) came to 7.9 µM. Further, the Activity result in the data set with RAW264.7 [2] is listed as “Non-Toxic”.
As for `CCCCCCCCCCCCCC(=O)n1ccc2c(Br)c3c(c(Br)c21)OCO3`, the inhibition entry with RAW264.7 [1] is “inactive”. For the same compound, in the data set with RAW264.7 [2], the Activity result is “Non-Toxic”.
As to `Brc1c2c(c(Br)c3[nH]ccc13)OCO2`, the inhibition result with RAW264.7 [4] and in the data set on RAW264.7 [3] (time 4.0 day) was “Dose-Dependent Effect” throughout. The IC50 in the data set with RAW264.7 [3] (Mus musculus, RAW264.7, 96 h) came out at 10.5 µM; with RAW264.7 [3] (raw264.7) it was 9.4 µM. In addition, the Activity result in the data set with RAW264.7 [2] was “Non-Toxic”.
Take `Brc1c2c(cc3[nH]ccc13)OCO2`: in the data set with RAW264.7 [3] (Mus musculus, RAW264.7, 96 h), the concentration for half-maximal inhibition (IC50) was 16.8 µM. In the data set with RAW264.7 [2], the Activity entry is “Non-Toxic”.
Regarding `NCCc1c[nH]c2c(Br)c3c(c(Br)c12)OCO3`, the IC50 in the data set with RAW264.7 [3] (Mus musculus, RAW264.7, 96 h) came to 5.9 µM. Further, the Activity entry with RAW264.7 [5] is given as “Toxic”.
Take `Brc1c2c(c(Br)c3c1OCO3)NCC2`: in the data set with RAW264.7 [3] (Mus musculus, RAW264.7, 96 h), the IC50 is 25.6 µM. The Activity entry with RAW264.7 [2] is “Non-Toxic”.
The corresponding values for `Brc1c2c(cc3cc[nH]c13)OCO2` are 35.4 µM and “Non-Toxic”.

Broadly, the inhibition is the drop in the measured response relative to a control, in per cent. One may read the IC50 as the point on the concentration scale where inhibition reaches its midpoint.
